pIC50: −log10 of the molar value. Where a name gives a salt, the structure may show the parent alone.

The target in this assay is T1, NLRP3 (Homo sapiens, UniProt Q96P20).
T1 construct: Seed THP-1 cells (25,000 cells/well) containing 1.0 μg/ml LPS in 40 μl of RPMI medium; host or cells: THP-1 cells
T1 sequence (Q96P20 whole entry): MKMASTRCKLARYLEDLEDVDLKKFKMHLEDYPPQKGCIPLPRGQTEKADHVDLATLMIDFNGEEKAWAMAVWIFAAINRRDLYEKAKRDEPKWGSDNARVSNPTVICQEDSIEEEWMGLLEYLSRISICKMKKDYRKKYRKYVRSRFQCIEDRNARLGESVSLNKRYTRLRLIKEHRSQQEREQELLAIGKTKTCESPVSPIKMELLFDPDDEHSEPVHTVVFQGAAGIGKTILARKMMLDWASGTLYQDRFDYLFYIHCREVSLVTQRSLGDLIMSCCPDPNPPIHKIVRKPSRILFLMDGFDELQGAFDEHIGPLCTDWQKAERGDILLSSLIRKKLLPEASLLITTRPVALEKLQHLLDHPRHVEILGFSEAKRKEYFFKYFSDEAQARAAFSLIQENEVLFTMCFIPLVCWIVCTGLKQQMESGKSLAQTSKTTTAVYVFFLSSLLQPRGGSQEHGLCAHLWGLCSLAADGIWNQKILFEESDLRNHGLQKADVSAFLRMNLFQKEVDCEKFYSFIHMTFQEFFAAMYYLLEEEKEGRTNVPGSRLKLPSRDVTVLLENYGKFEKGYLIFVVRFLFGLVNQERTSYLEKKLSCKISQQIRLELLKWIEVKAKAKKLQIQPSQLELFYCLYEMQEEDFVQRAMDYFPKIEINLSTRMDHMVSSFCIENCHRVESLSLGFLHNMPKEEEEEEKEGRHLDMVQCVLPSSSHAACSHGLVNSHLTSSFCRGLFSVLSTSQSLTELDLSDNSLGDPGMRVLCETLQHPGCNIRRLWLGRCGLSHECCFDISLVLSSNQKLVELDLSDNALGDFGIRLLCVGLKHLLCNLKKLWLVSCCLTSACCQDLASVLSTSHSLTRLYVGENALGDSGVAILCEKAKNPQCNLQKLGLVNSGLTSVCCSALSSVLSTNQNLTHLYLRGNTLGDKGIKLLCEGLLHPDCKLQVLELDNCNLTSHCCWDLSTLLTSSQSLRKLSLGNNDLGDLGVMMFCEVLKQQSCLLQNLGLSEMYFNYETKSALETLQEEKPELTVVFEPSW
The assay can be described thus: THP-1 Cells Pyroptosis Assay. It is filed as cell-based. The following applies: THP-1 cells with 1.0 μg/ml LPS; compound 3 hours; nigericin 5 μM 1 hr; resazurin readout. The method, then:
The cells were routinely passaged and grown to confluency (˜10^6 cells/ml). On the day of the experiment, THP-1 cells were harvested and resuspended into RPMI medium (without FBS). The cells were then counted and viability (>90%) checked by Trypan blue (Sigma #T8154). […] To this diluted cell solution was added LPS (Sigma #L4524) to give a 1 μg/ml Final Assay Concentration (FAC). 40 μl of the final preparation was aliquoted into each well of a 96-well plate. The plate thus prepared was used for compound screening.
The following method step-by-step assay was followed for compound screening. • 1. […] Incubate for 3 hours at 37° C., 5% CO2 • 4. Add 5 μl nigericin (Sigma #N7143) (FAC 5 μM) to all wells • 5. Incubate for 1 hr at 37° C., 5% CO2 • 6. At the end of the incubation period, spin plates at 300×g for 3 mins and remove supernatant • 7. Then add 50 μl of resazurin (Sigma #R7017) (FAC 100 μM resazurin in RPMI medium without FBS) and incubate plates for a further 1-2 hours at 37° C. and 5% CO2 • 8.
On the technique in general: Resazurin is reduced to fluorescent resorufin, in cell work by metabolically active cells.
The compound `Cc1cc(C(F)(F)F)cc(O)c1-c1ccc2oc(N3CCOC(CO)C3)nc2n1` (racemic) [Example 5, (rac)-[2-[2-(Hydroxymethyl)morpholin-4-yl]oxazolo[4,5-b]pyridin-5-yl]-3-methyl-5-(trifluoromethyl)phenol] had a pIC50 of 7.50.

Turning to `CCN1CCCC(Nc2nc3nc(-c4c(C)cc(C(F)(F)F)cc4O)ccc3o2)C1` (racemic) [Example 1, (rac)-2-[2-[(1-Ethyl-3-piperidyl)amino]oxazolo[4,5-b]pyridin-5-yl]-3-methyl-5-(trifluoromethyl)phenol], the pIC50 was 8.72.

As to `CCCN1CCC[C@@H](Nc2nc3nc(-c4c(C)cc(Cl)cc4O)ccc3o2)C1` [Example 46, 5-Chloro-3-methyl-2-[2-[[(3R)-1-propyl-3-piperidyl]amino]oxazolo[4,5-b]pyridin-5-yl]phenol], the pIC50 is 9.00. This pIC50 is 0.28 log units higher than that of the compound before. As for `Cc1cc(C(F)(F)F)cc(O)c1-c1ccc2[nH]c(C3CCCCN3C)nc2n1` (racemic) [Example 16, (rac)-3-Methyl-2-(2-(1-methylpiperidin-2-yl)-3H-imidazo[4,5-b]pyridin-5-yl)-5-(trifluoromethyl)phenol], the figure is 6.48; as for `Cc1cc(C(F)(F)F)cc(O)c1-c1ccc2oc(N3CCOCC3CN(C)C)nc2n1` (single isomer, unassigned) [Example 2B, 2-[2-[(3S or 3R)-3-[(Dimethylamino)methyl]morpholin-4-yl]oxazolo[4,5-b]pyridin-5-yl]-3-methyl-5-(trifluoromethyl)phenol], 7.77. The compound `CCN1CCC12CCN(c1nc3nc(-c4c(C)cc(C(F)(F)F)cc4O)ccc3o1)CC2` [Example 79, 2-[2-(1-Ethyl-1,7-diazaspiro[3.5]nonan-7-yl)oxazolo[4,5-b]pyridin-5-yl]-3-methyl-5-(trifluoromethyl)phenol] showed a pIC50 of 7.02. This pIC50 is 0.75 log units lower than that of the compound before. Regarding `CCN1CCCC(Nc2nc3nc(-c4c(O)cc(Cl)cc4COC)ccc3o2)C1` [Example 24, 5-Chloro-2-[2-[[(3R)-1-ethyl-3-piperidyl]amino]oxazolo[4,5-b]pyridin-5-yl]-3-(methoxymethyl)phenol;2,2,2-trifluoroacetic acid salt], the negative logarithm of the IC50 (pIC50) is 8.77. As for `COC(=O)CCCN1CCC[C@@H](Nc2nc3nc(-c4c(C)cc(Cl)cc4O)ccc3o2)C1` [Example 84, Methyl 4-[(3R)-3-[[5-(4-chloro-2-hydroxy-6-methyl-phenyl)oxazolo[4,5-b]pyridin-2-yl]amino]-1-piperidyl]butanoate], the pIC50 is 9.10.

The compound `Cc1cc(Cl)cc(O)c1-c1ccc2oc(C3CCC(=O)NC3)nc2n1` (stereo not shown) [Example 73, 5-[5-(4-Chloro-2-hydroxy-6-methyl-phenyl)oxazolo[4,5-b]pyridin-2-yl]piperidin-2-one] had a negative logarithm of the IC50 (pIC50) of 7.52. Compared with the last compound, the pIC50 is 1.58 log units lower. With `Cc1cc(Cl)cc(O)c1-c1ccc2oc([C@H]3CCC(=O)NC3)nc2n1` (single isomer, unassigned) [Example 73A, (5S)-5-[5-(4-Chloro-2-hydroxy-6-methyl-phenyl)oxazolo[4,5-b]pyridin-2-yl]piperidin-2-one or (5R)-5-[5-(4-Chloro-2-hydroxy-6-methyl-phenyl)oxazolo[4,5-b]pyridin-2-yl]piperidin-2-one] the figure was 7.73; with `Cc1cc(C#N)cc(O)c1-c1ccc2oc(N3CCCC4CCN(C)CC43)nc2n1` (stereo not shown) [Example 81, 3-Hydroxy-5-methyl-4-[2-(7-methyl-2,3,4,4a,5,6,8,8a-octahydro-1,7-naphthyridin-1-yl)oxazolo[4,5-b]pyridin-5-yl]benzonitrile], 7.14; with `Cc1cc(C#N)cc(O)c1-c1ccc2oc(N3CCC4CCN(C)CC43)nc2n1` (single isomer, unassigned) [Example 27A, 4-[2-[(3aS,7aR or 3aR,7aS)-6-methyl-3,3a,4,5,7,7a-hexahydro-2H-pyrrolo[2,3-c]pyridin-1-yl]oxazolo[4,5-b]pyridin-5-yl]-3-hydroxy-5-methyl-benzonitrile], 6.24. As for `Cc1cc(F)cc(O)c1-c1ccc2oc(N[C@@H]3CCCN(C)C3)nc2n1` [Example 50, 5-Fluoro-3-methyl-2-[2-[[(3R)-1-methyl-3-piperidyl]amino]oxazolo[4,5-b]pyridin-5-yl]phenol], the figure is 8.77. As for `Cc1cc(C(F)(F)F)cc(O)c1-c1ccc2oc(N3CCO[C@H]4CNC[C@@H]43)nc2n1` (racemic) [Example 64, 3-Methyl-2-[2-[rac-(4aS,7aS)-3,4a,5,6,7,7a-hexahydro-2H-pyrrolo[3,4-b][1,4]oxazin-4-yl]oxazolo[4,5-b]pyridin-5-yl]-5-(trifluoromethyl)phenol;2,2,2-trifluoroacetic acid], the figure is 8.31; as for `Cc1cc(C(F)F)cc(O)c1-c1ccc2oc(N[C@@H]3CCCN(C)C3)nc2n1` [Example 121, 5-(Difluoromethyl)-3-methyl-2-[2-[[(3R)-1-methyl-3-piperidyl]amino]oxazolo[4,5-b]pyridin-5-yl]phenol], 8.57. `CCN1CCC[C@@H](Nc2nc3nc(-c4c(O)cc(C(F)(F)F)cc4F)ccc3o2)C1` [Example 53, 2-[2-[[(3R)-1-Ethyl-3-piperidyl]amino]oxazolo[4,5-b]pyridin-5-yl]-3-fluoro-5-(trifluoromethyl)phenol] gave a pIC50 of 8.59. With `Cc1cc(C(F)(F)F)cc(O)c1-c1ccc2oc(NCC3CCN3C)nc2n1` (stereo not shown) [Example 66, 3-Methyl-2-[2-[(1-methylazetidin-2-yl)methylamino]oxazolo[4,5-b]pyridin-5-yl]-5-(trifluoromethyl)phenol] the figure was 6.83. Turning to `Cc1cc(C#N)cc(O)c1-c1ccc2oc(N[C@@H]3CCCN(CCO)C3)nc2n1` [Example 85, 3-Hydroxy-4-[2-[[(3R)-1-(2-hydroxyethyl)-3-piperidyl]amino]oxazolo[4,5-b]pyridin-5-yl]-5-methyl-benzonitrile], the pIC50 was 7.81. With `Cc1cc(Cl)cc(O)c1-c1ccc2oc(N[C@@H]3C[C@H](O)CN(C)C3)nc2n1` [Example 49, (3S,5R)-5-[[5-(4-Chloro-2-hydroxy-6-methyl-phenyl)oxazolo[4,5-b]pyridin-2-yl]amino]-1-methyl-piperidin-3-ol] the figure was 8.80. Regarding “3-Methyl-2-[2-[[(2R)-1-methylazetidin-2-yl]methylamino]oxazolo[4,5-b]pyridin-5-yl]-5-(trifluoromethyl)phenol or 3-methyl-2-[2-[[(2S)-1-methylazetidin-2-yl]methylamino]oxazolo[4,5-b]pyridin-5-yl]-5-(trifluoromethyl)phenol [Example 66A]”, the pIC50 was 6.40. Compared with the last compound, the pIC50 is 2.40 log units lower. As for `Cc1cc(C(F)(F)F)cc(O)c1-c1ccc2oc(N3CCO[C@@H]4CNC[C@H]43)nc2n1` [Example 64A, 2-[2-[(4aR,7aR)-3,4a,5,6,7,7a-Hexahydro-2H-pyrrolo[3,4-b][1,4]oxazin-4-yl]oxazolo[4,5-b]pyridin-5-yl]-3-methyl-5-(trifluoromethyl)phenol], the figure is 8.77; as for `CCN1CCC[C@@H](Nc2nc3nc(-c4c(C)cc(F)cc4O)ccc3o2)C1` [Example 45, 2-[2-[[(3R)-1-Ethyl-3-piperidyl]amino]oxazolo[4,5-b]pyridin-5-yl]-5-fluoro-3-methyl-phenol], 9.05. With `Cc1cc(C(F)(F)F)cc(O)c1-c1cc(C)c2oc(N[C@@H]3CCCN(C)C3)nc2n1` [Example 33, 3-Methyl-2-[7-methyl-2-[[(3R)-1-methyl-3-piperidyl]amino]oxazolo[4,5-b]pyridin-5-yl]-5-(trifluoromethyl)phenol;2,2,2-trifluoroacetic acid salt] the figure was 8.24. With `CCN1CCC[C@@H](Nc2nc3nc(-c4c(O)cc(Cl)cc4Cl)ccc3o2)C1` [Example 132, 3,5-Dichloro-2-[2-[[(3R)-1-ethyl-3-piperidyl]amino]oxazolo[4,5-b]pyridin-5-yl]phenol;2,2,2-trifluoroacetic acid] the figure was 9.15. Consider `COCCN(c1nc2nc(-c3c(C)cc(Cl)cc3O)ccc2o1)[C@@H]1CCCN(C)C1` [Example 90, 5-Chloro-2-[2-[2-methoxyethyl-[(3R)-1-methyl-3-piperidyl]amino]oxazolo[4,5-b]pyridin-5-yl]-3-methyl-phenol;formic acid], for which the pIC50 was 7.65. As for `Cc1cc(C(F)(F)F)cc(O)c1-c1ccc2oc(NC[C@H]3C[C@](C)(O)C3)nc2n1` [Example 58, trans-2-[2-[(3-hydroxy-3-methyl-cyclobutyl)methylamino]oxazolo[4,5-b]pyridin-5-yl]-3-methyl-5-(trifluoromethyl)phenol], the figure is 7.02; as for `CCN1CCC2CCN(c3nc4nc(-c5c(C)cc(C#N)cc5O)ccc4o3)C2C1` (single isomer, unassigned) [Example 72A, 4-[2-[(3aS,7aR)-6-Ethyl-3,3a,4,5,7,7a-hexahydro-2H-pyrrolo[2,3-c]pyridin-1-yl]oxazolo[4,5-b]pyridin-5-yl]-3-hydroxy-5-methyl-benzonitrile or 4-[2-[(3aR,7aS)-6-ethyl-3,3a,4,5,7,7a-hexahydro-2H-pyrrolo[2,3-c]pyridin-1-yl]oxazolo[4,5-b]pyridin-5-yl]-3-hydroxy-5-methyl-benzonitrile], 9.00.

Compound `CCN1CCC[C@@H](Nc2nc3nc(-c4c(C)cc(C(F)(F)F)cc4O)cc(C#N)c3o2)C1` [Example 117, 2-[[(3R)-1-Ethyl-3-piperidyl]amino]-5-[2-hydroxy-6-methyl-4 (trifluoromethyl)phenyl]-oxazolo[4,5-b]pyridine-7-carbonitrile] showed a negative logarithm of the IC50 (pIC50) of 8.28.

As usually defined, the pIC50 is −log10 of the IC50, conventionally taken in molar units. Lower therefore signals a high IC50.
